Article PMC4013053, “Identification of Selective Small Molecule Inhibitors of the Nucleotide-Binding Oligomerization Domain 1 (NOD1) Signaling Pathway” (PLoS ONE, 2014)

Tests used:
[1] = Immobilized artificial membrane (IAM) binding; format: physicochemical
Text: Physicochemical analyses of compounds were completed at GSK.

endogenous NOD1 [2] = target: T1, endogenous NOD1 (Homo sapiens, UniProt Q9Y239); experiment: Tri-DAP-stimulated IL-8 release in HCT116 cells; format: cell-based; conditions: HCT116, increasing compound concentrations 0.005–1 µM, Tri-DAP 0.6–75 µg/mL
T1 construct: Compound activity on endogenous NOD1 and NOD2 receptors was determined; host or cells: HCT116
T1 sequence (Q9Y239 1-953): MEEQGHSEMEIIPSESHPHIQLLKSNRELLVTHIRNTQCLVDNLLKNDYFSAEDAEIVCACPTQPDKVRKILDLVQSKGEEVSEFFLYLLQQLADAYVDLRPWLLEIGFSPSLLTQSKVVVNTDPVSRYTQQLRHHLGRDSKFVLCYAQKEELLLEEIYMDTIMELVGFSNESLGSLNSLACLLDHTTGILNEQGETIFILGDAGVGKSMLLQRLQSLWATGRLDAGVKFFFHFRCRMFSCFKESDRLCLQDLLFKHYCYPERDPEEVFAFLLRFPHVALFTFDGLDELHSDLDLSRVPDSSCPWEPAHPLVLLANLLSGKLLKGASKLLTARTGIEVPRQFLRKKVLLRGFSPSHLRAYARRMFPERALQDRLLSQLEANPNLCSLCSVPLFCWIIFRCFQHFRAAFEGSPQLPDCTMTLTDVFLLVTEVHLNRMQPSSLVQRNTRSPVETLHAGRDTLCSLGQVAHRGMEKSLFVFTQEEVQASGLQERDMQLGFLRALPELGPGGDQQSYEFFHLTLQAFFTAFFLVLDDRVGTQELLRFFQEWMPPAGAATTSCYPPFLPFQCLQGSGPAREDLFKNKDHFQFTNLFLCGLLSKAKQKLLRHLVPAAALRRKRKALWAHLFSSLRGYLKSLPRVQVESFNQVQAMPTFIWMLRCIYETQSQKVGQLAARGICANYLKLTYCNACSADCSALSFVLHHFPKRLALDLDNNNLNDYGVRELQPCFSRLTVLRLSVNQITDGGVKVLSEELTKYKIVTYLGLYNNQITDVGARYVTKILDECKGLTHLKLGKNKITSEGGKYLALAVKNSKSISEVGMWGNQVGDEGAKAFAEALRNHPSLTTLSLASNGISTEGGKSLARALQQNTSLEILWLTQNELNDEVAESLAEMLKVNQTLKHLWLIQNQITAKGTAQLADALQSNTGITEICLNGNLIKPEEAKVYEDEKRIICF

endogenous NOD1 [3] = target: T1, endogenous NOD1; experiment: Tri-DAP-stimulated IL-8 release in HCT116 cells; format: cell-based; conditions: for IC50: human colon carcinoma cells, IL-8 released into medium; for inhibition of Tri-DAP-stimulated IL-8 secretion: HCT116, increasing concentrations (16 nM–16 µM)
Description: (§1) For assay, cells were seeded into 96 well plates (90,000 cells/well) in DMEM containing 1% FBS and pre-incubated with compounds for 1 hour before addition of either 25 µg/mL Tri-DAP or 1 µg/mL MDP. The level of IL-8 released into medium after 24-hour incubation was determined by HTRF assay (Cisbio) as described above and fluorescence measured on an Envision model 2102 multilabel plate reader (Perkin Elmer). The activity of compounds against NOD1-induced type I interferon response was determined by inhibition of Tri-DAP stimulated IP-10 secretion in HT-29 cells, maintained in the same medium as for HCT116 cells. The HT-29 cells were seeded into 96 well plates (60,000 cells/well) in DMEM with 1% FBS, pre-incubated with compounds for 1 hour and stimulated for 24 hours with 50 µg/mL Tri-DAP. The concentration of IL-8 released into the medium was measured by HTRF as above, IP-10 was measured using the IP-10/CXCL10 Quantikine ELISA kit (R&D Systems), and IFNβ was measured using the MA6000 human IFN-β tissue culture kit (Meso Scale Discovery).

murine NOD1 = experiment: NOD1 stimulated KC (CXCL1) production in murine bone marrow derived macrophages; format: cell-based, mouse; conditions: murine BMDM, 25 µg/mL FK156 or Tri-DAP, 24 hours
Description: C57BL/6 mice were obtained from the Jackson Laboratories. Bone marrow was flushed from the femurs and tibiae of adult (∼3 month old) mice with serum-free DMEM medium using a 23-gauge needle and syringe. A fine cell suspension was obtained by gentle aspiration and passage through a […] cell strainer. After centrifugation and re-suspending in DMEM supplemented with 10%HI-FBS, the mononuclear cells obtained from each animal were plated into the central 60 wells of a 96-well plate. After 24 hours, the medium and non-adherent cells were removed and replaced with DMEM with 10%HI-FBS containing 10 ng/mL M-CSF and the cells cultured for 1 week with two additional medium changes. After this time the medium was aspirated and the cells pre-treated with compounds for 1 hour and then stimulated for 24 hours with either 25 µg/mL Tri-DAP or FK156. Each treatment was performed in triplicate wells. The concentration of murine KC (CXCL1) together with 6 other cytokines/chemokines present in conditioned medium was then determined using the murine pro-inflammatory 7-plex assay (Meso Scale Discovery).

NOD1 = experiment: Tri-DAP stimulated IL-8 release in HT-29 cells; format: cell-based, human; conditions: HT-29, 50 µg/mL Tri-DAP 24 hours, same supernatants
Description: as §1

[4] = test system: NOD1-induced type I interferon response; experiment: Tri-DAP stimulated IP-10 secretion in HT-29 cells; format: cell-based; conditions: Homo sapiens; HT-29, 50 µg/mL Tri-DAP 24 hours
Description: as §1

TLR4 = test system: TLR4; set-up: method as in PMID 22870324; conditions: human lung microvascular endothelial cells; cited from earlier work
[5] = test system: panel of 300 human kinases; experiment: Kinase activity panel (Reaction Biology Corp); format: biochemical; conditions: 1 µM compound, 10 µM ATP, 300 kinases
Description: (§2) The compounds were tested in duplicate at 1 µM with a 20-minute pre-incubation with enzyme followed by addition of 10 µM ATP.

CAMK1 = target: T2, CAMK1 (Homo sapiens, UniProt Q14012); experiment: Kinase activity panel: CAMK1; format: biochemical; conditions: 1 µM compound, 10 µM ATP
T2 construct: purchased Reaction Biology Corp
Description: as §2

Row | Compound | IAM binding [1] [log K] | IC50 (endogenous NOD1 [3]) [nM] | IC50 (NOD1) [nM] | IC50 [4] [nM] | inhibition of any kinase in panel [5] [%] | inhibition of Tri-DAP-stimulated IL-8 secretion (endogenous NOD1 [3]) | decrease of CAMK1 activity (CAMK1) [%] | effect on Tri-DAP concentration response (IL-8) (endogenous NOD1 [2]) | inhibition of FK156 or Tri-DAP-stimulated KC production (murine NOD1) | effect on IL-8 release, LPS stimulated (TLR4)
1 | Cc1ccc(S(=O)(=O)Nc2cccc(C(=O)Nc3ccc4nc(C)sc4c3)c2)cc1 [Compound 16] | 2.45 | 60 | 40 | 250 | – | – | – | progressive reduction in both the apparent EC50 and maximum response of Tri-DAP | partial inhibition at best | –
2 | Cc1nc2ccccc2c(=O)n1-c1ccc(Cl)c(NS(=O)(=O)c2ccccc2F)c1 [Compound 22] | – | 30 | 30 | 80 | – | – | – | progressive reduction in both the apparent EC50 and maximum response of Tri-DAP | little or no inhibitory activity | no inhibitory effect

More lines, main results first:

Row | IAM binding [1] [log K] | IC50 (endogenous NOD1 [3]) [nM] | IC50 (NOD1) [nM] | IC50 [4] [nM] | inhibition of any kinase in panel [5] [%] | inhibition of Tri-DAP-stimulated IL-8 secretion (endogenous NOD1 [3]) | decrease of CAMK1 activity (CAMK1) [%] | Compound | effect on Tri-DAP concentration response (IL-8) (endogenous NOD1 [2]) | inhibition of FK156 or Tri-DAP-stimulated KC production (murine NOD1) | effect on IL-8 release, LPS stimulated (TLR4)
3 | 1.68 | 400 | – | – | ≤ 50 | complete inhibition | – | CCc1ccc(S(=O)(=O)Nc2cc(-n3c(C)nc4ccccc4c3=O)ccc2F)s1 [GSK223] | – | – | –
4 | 2.38 | 700 | – | – | – | complete inhibition | 55 | Cc1nc2ccc(NC(=O)c3cccc(NS(=O)(=O)c4ccc(F)cc4)c3)cc2s1 [GSK966] | – | – | –
5 | 2.41 | 900 | – | – | – | complete inhibition | – | Cn1c(=O)[nH]c(=O)c2c1nc(CCSc1ccccc1)n2Cc1ccccc1 [SB711] | – | – | –
